Test results taken from the supplement of paper PMC7600603.

Assays:
DLD1 NRF2-GOF [1] = assay: TC50 cytotoxicity; higher = less toxic; conditions: 72 h; CellTox Green cytotoxicity
In short: (§1)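 After growth in DMEM with 10% FBS, NRF2 wild-type and CRISPR-edited isogenic DLD1 cells were seeded in 384-well plates and given library compounds at 5 concentrations across a 10,000-fold range. Fluorescence from CellTox Green was taken on a Pherastar FS reader after 72 h and normalised against vehicle wells and 100-μM positive-control wells. From logistic dose-response fits of cytotoxicity came the TC50 and the drug sensitivity score, a normalised area under the curve.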

DLD1 NRF2-WT [2] = assay: TC50 cytotoxicity; higher = less toxic; conditions: 72 h; CellTox Green cytotoxicity
In short: as §1

DLD1 NRF2-GOF [3] = assay: drug sensitivity score (DSS) viability (DSS score); higher = more sensitive; extreme values may be limits of the assay; conditions: 72 h; CellTiter-Glo viability
In short: (§2)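 Cells grown in DMEM with 10% FBS were isogenic DLD1 colorectal cancer lines, NRF2 wild-type or CRISPR gain-of-function. In 384-well plates they received library compounds at 5 concentrations over a 10,000-fold range for 72 h before CellTiter-Glo readout on a Pherastar FS reader, normalised to vehicle wells and 100-μM positive-control wells. Dose-response fits used a four-parameter logistic model, from which EC50 and drug sensitivity score, a normalised area under the curve, were obtained.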

DLD1 NRF2-WT [4] = assay: as above; conditions: 72 h; CellTiter-Glo viability
In short: as §2

DLD1 NRF2-GOF [5] = assay: drug sensitivity score (DSS) cytotoxicity (DSS score); higher = more toxic; extreme values may be limits of the assay; conditions: 72 h; CellTox Green cytotoxicity
In short: as §1

DLD1 NRF2-WT [6] = assay: as above; conditions: 72 h; CellTox Green cytotoxicity
In short: as §1

DLD1 NRF2-GOF [7] = conditions: 72 h; CellTiter-Glo viability
In short: as §2

DLD1 NRF2-WT [8] = conditions: 72 h; CellTiter-Glo viability
In short: as §2

Row | EC50 viability (DLD1 NRF2-GOF [7]) [nM] | EC50 viability (DLD1 NRF2-WT [8]) [nM] | Structure (SMILES) | TC50 cytotoxicity (DLD1 NRF2-GOF [1]) [nM] | TC50 cytotoxicity (DLD1 NRF2-WT [2]) [nM] | drug sensitivity score (DLD1 NRF2-GOF [3]) | drug sensitivity score (DLD1 NRF2-WT [4]) | drug sensitivity score (DLD1 NRF2-GOF [5]) | drug sensitivity score (DLD1 NRF2-WT [6])
1 | > 1000 | > 1000 | CCN1CCN(c2ccc(Nc3cc(N(C)C(=O)Nc4c(Cl)c(OC)cc(OC)c4Cl)ncn3)cc2)CC1 [NVP-BGJ398] | > 1000 | > 1000 | 0 | 0 | 0 | 0
2 | 3.9 | 3.2 | CC(=O)O[C@H]1C(=O)[C@@]2(C)[C@H]([C@H](OC(=O)c3ccccc3)[C@]3(O)C[C@H](OC(=O)[C@H](O)[C@@H](NC(=O)c4ccccc4)c4ccccc4)C(C)=C1C3(C)C)[C@]1(OC(C)=O)CO[C@@H]1C[C@@H]2O [Paclitaxel] | > 1000 | 17.4 | 24 | 24.1 | 4.7 | 10.5
3 | 855 | 511 | C1=N/C2=N/c3ccc(OCCN4CCCC4)c(c3)COC/C=C/COCc3cccc(c3)C(=C1)N2 [Pacritinib] | 1800 | 1980 | 12.6 | 15.1 | 8.6 | 8.1
4 | 92.1 | 357 | CO[C@@H](C(=O)N1Cc2[nH]nc(NC(=O)c3ccc(N4CCN(C)CC4)cc3)c2C1)c1ccccc1 [Danusertib] | > 10000 | > 10000 | 16.6 | 10.4 | 0 | 2.4
5 | 1330 | 937 | CCCN(CCC)C(=O)C1=Cc2ccc(-c3ccc(C(=O)N4CCCC4)cc3)cc2N=C(N)C1 [Motolimod] | > 10000 | > 10000 | 3.6 | 4.4 | 0 | 0
6 | > 5000 | > 5000 | c1cn2cc(-c3ccc4cn[nH]c4c3)nc(Nc3ccc(N4CCOCC4)cc3)c2n1 [Entospletinib] | > 5000 | > 5000 | 0 | 0 | 0 | 0
7 | 55.1 | 399 | COc1cc(N2CCC(N3CCN(C)CC3)CC2)ccc1Nc1ncc(Cl)c(Nc2ccccc2P(C)(C)=O)n1 [Brigatinib] | > 1000 | > 1000 | 3.4 | 1.1 | 0 | 0
8 | 4080 | 2460 | COc1cc2ncnc(Nc3ccc(F)c(Cl)c3)c2cc1OCCCN1CCOCC1 [Gefitinib] | > 10000 | > 10000 | 1.5 | 3.7 | 0 | 0
9 | 1460 | 1030 | CC1(COc2ccc3c(c2)ncn3-c2ccc3cccc(N4CCC(N)CC4)c3n2)COC1 [Crenolanib] | 2890 | 2650 | 9.3 | 10.9 | 6.1 | 4.3
10 | 3270 | 1710 | CN1CCN(C2CCC(n3cc(-c4ccc(Oc5ccccc5)cc4)c4c(N)ncnc43)CC2)CC1 (configuration not stated) | 3090 | 3230 | 5.4 | 8.8 | 5.3 | 4.5
11 | 26.1 | 13.2 | Cn1c(=O)n(-c2ccc(C(C)(C)C#N)cc2)c2c3cc(-c4cnc5ccccc5c4)ccc3ncc21 [Dactolisib] | > 1000 | > 1000 | 9.8 | 13.9 | 0 | 0

Continued, compound first:

Row | Structure (SMILES) | EC50 viability (DLD1 NRF2-GOF [7]) [nM] | EC50 viability (DLD1 NRF2-WT [8]) [nM] | TC50 cytotoxicity (DLD1 NRF2-GOF [1]) [nM] | TC50 cytotoxicity (DLD1 NRF2-WT [2]) [nM] | drug sensitivity score (DLD1 NRF2-GOF [3]) | drug sensitivity score (DLD1 NRF2-WT [4]) | drug sensitivity score (DLD1 NRF2-GOF [5]) | drug sensitivity score (DLD1 NRF2-WT [6])
12 | Nc1nc(N)c2nc(-c3cccc(O)c3)c(-c3cccc(O)c3)nc2n1 [TG100-115] | 1430 | 75.1 | > 10000 | > 10000 | 3.5 | 7.1 | 0 | 0
13 | COc1cc2c(Oc3ccc4[nH]c(C)cc4c3F)ncnc2cc1OCCCN1CCCC1 [Cediranib] | 12.1 | 44.2 | > 1000 | > 1000 | 10.2 | 7 | 0 | 0
14 | CCn1cc(-c2ccnc3[nH]c(-c4cccc(CN(C)C)c4)cc23)c(-c2ccc(NC(=O)N(C)C)cc2)n1 | 45.2 | 172 | > 1000 | > 1000 | 4.4 | 2.8 | 1.6 | 0
15 | Cc1ccc(NS(=O)(=O)c2cccc(C#N)c2)c2[nH]cc(C#N)c12 [E7820] | 202 | 531 | > 50000 | > 50000 | 22.9 | 15.3 | 0 | 0
16 | Cc1cc(Nc2cc(CN3CCOCC3)c3nc(C)c(Cc4ccc(Cl)cc4F)n3n2)n[nH]1 [Gandotinib] | 2090 | 2280 | 1620 | 1890 | 6.2 | 5 | 6.1 | 2.8
17 | COc1cc(OC)cc(N(CCNC(C)C)c2ccc3ncc(-c4cnn(C)c4)nc3c2)c1 [Erdafitinib] | 133 | 42.1 | > 1000 | > 1000 | 6 | 5.9 | 0 | 0
18 | COc1cccc(OCCCN)c1-c1cc(Nc2cnc(C#N)cn2)n[nH]1 [Prexasertib] | 365 | 737 | 931 | 1490 | 13.5 | 12.1 | 3.6 | 3.8
19 | Clc1ccc(C(c2ccccc2Cl)C(Cl)Cl)cc1 (configuration not stated) [Mitotane] | > 10000 | > 10000 | > 10000 | > 10000 | 1.8 | 0 | 0 | 0
